Results reported in ChEMBL document CHEMBL1201862, “PubChem BioAssay data set” (2004).
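Five compound concentrations were applied to cells in 96-well plates for 48 hours; endpoints were derived by simple linear interpolation of the resulting dose-response curve. Abbreviation: GI50, concentration required for 50% inhibition of growth.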 The source made the active and inactive calls. Cut-off read from the data, not from the text of the source: active = GI50 up to about 1.1 µM and inactive = higher.

How the values were obtained:
Experiment in all cases: DTP human tumour cell line panel, 48 h
[1] = tested on: 786-0
[2] = tested on: A549
[3] = tested on: DLD-1
[4] = tested on: HL-60
[5] = tested on: HT-29
[6] = tested on: LOX IMVI
[7] = tested on: MOLT-4
[8] = tested on: NCI-H23
[9] = tested on: OVCAR-3
[10] = tested on: SF-539
[11] = tested on: SK-MEL-2
[12] = tested on: TK-10
[13] = tested on: UACC-62
[14] = tested on: UO-31
[15] = tested on: SNB-75
[16] = tested on: A498
[17] = tested on: DU-145
[18] = tested on: Hs-578T
[19] = tested on: MDA-MB-435
[20] = tested on: PC-3

Measured: GI50

CCc1ccccc1N1C(=O)C(=O)C(c2nc3ccccc3s2)C(=O)C1=O
inactive: [1] > 100 µM | [2] > 100 µM | [3] 43.2 µM | [4] 40.3 µM | [5] > 100 µM | [6] > 100 µM | [7] 42.2 µM | [8] 66.2 µM | [9] 80.4 µM | [10] > 100 µM | [11] > 100 µM | [12] > 100 µM | [13] > 100 µM | [14] > 100 µM

OCCc1cnco1
inactive: [1] > 100 µM | [2] > 100 µM | [3] > 100 µM | [4] > 100 µM | [5] > 100 µM | [6] > 100 µM | [7] > 100 µM | [8] > 100 µM | [9] > 100 µM | [10] > 100 µM | [15] > 100 µM | [12] > 100 µM | [13] > 100 µM

COc1cccc(NC(=O)CC(=O)N2N=C(N(CCC#N)c3ccccc3C)CC2c2ccccc2)c1 (centres undefined)
inactive: [1] > 100 µM | [2] > 100 µM | [3] > 100 µM | [4] > 100 µM | [5] > 100 µM | [7] > 100 µM | [8] > 100 µM | [9] > 100 µM | [10] > 100 µM | [11] > 100 µM | [15] > 100 µM | [13] > 100 µM | [14] > 100 µM

N#CC(C(=O)CCCC(=O)Nc1ccc(Cl)cc1Cl)c1ccc(Cl)cc1 (centres undefined)
inactive: [1] > 100 µM | [2] > 100 µM | [3] > 100 µM | [4] > 100 µM | [5] > 100 µM | [6] > 100 µM | [7] > 100 µM | [8] > 100 µM | [9] > 100 µM | [10] > 100 µM | [11] > 100 µM | [15] > 100 µM | [12] > 100 µM | [13] > 100 µM | [14] > 100 µM

COC1(OC)C2(Cl)C(Cl)=C(Cl)C1(Cl)C1C=CC=CC12 (centres undefined)
inactive: [1] > 100 µM | [2] 69 µM | [3] 67.5 µM | [4] 55.8 µM | [5] 47.8 µM | [6] 40.2 µM | [8] > 100 µM | [9] > 100 µM | [10] > 100 µM | [11] 24.1 µM | [15] 66.5 µM | [12] > 100 µM | [13] 73.5 µM | [14] > 100 µM

COc1ccc(-c2cc(O)c3cc4c(cc3n2)OCO4)c(OC)c1OC
inactive: [1] > 100 µM | [2] > 100 µM | [3] > 100 µM | [4] 37.3 µM | [5] > 100 µM | [6] > 100 µM | [7] 62.7 µM | [8] > 100 µM | [9] > 100 µM | [10] > 100 µM | [11] > 100 µM | [15] 27.7 µM | [12] > 100 µM | [13] 47.6 µM | [14] > 100 µM

CC1=NN(c2nc(N)nc(C(C#N)C(=O)c3cc4c(cc3Cl)Sc3nccn3S4(=O)=O)n2)C(C)(C)C1 (centres undefined)
inactive: [1] 13.5 µM | [16] 52.1 µM | [2] 61.4 µM | [17] 16.8 µM | [4] 10.3 µM | [5] 34.3 µM | [18] 32.2 µM | [6] 17.7 µM | [19] 22.8 µM | [7] 13 µM | [8] 16.1 µM | [9] 13.6 µM | [20] 29.2 µM | [10] 37.7 µM | [11] 20.2 µM | [15] 16.1 µM | [12] 17.9 µM | [13] 18.8 µM | [14] 30.1 µM

[N-]=[N+]=NC(CBr)c1cn([C@H]2C[C@H](O)[C@@H](CO)O2)c(=O)[nH]c1=O (some centres undefined)
inactive: [1] > 100 µM | [2] > 100 µM | [3] > 100 µM | [4] > 100 µM | [5] > 100 µM | [6] > 100 µM | [7] > 100 µM | [8] > 100 µM | [9] > 100 µM | [10] > 100 µM | [11] > 100 µM | [15] > 100 µM | [12] > 100 µM | [13] > 100 µM | [14] > 100 µM

N#Cc1c(-c2ccc(Cl)cc2)c2c([nH]c1=O)-c1ccccc1SC2
inactive: [1] 39.8 µM | [16] > 100 µM | [2] 30.3 µM | [17] > 100 µM | [4] 21 µM | [5] 59.7 µM | [18] 67.9 µM | [6] 22 µM | [19] 41 µM | [7] 27.4 µM | [8] 93.3 µM | [9] 26.2 µM | [20] 42.8 µM | [10] 25.6 µM | [11] 52.6 µM | [15] 27.5 µM | [12] 16.2 µM | [13] 32.7 µM | [14] 56.9 µM

O=C(Nc1nn(C(=O)c2cccnc2)c(=O)s1)c1ccc(Cl)cc1
inactive: [1] > 100 µM | [16] > 100 µM | [2] 99.8 µM | [17] 85.9 µM | [4] 60.3 µM | [5] > 100 µM | [18] 29.2 µM | [6] > 100 µM | [19] > 100 µM | [7] 28.1 µM | [8] > 100 µM | [9] 43.1 µM | [20] 61.1 µM | [10] 29.4 µM | [11] > 100 µM | [15] 29.4 µM | [12] 76.6 µM | [13] > 100 µM | [14] 1.8 µM

CN(C)CCCC1c2ccccc2Oc2ccc(C(F)(F)F)cc21 (centres undefined)
inactive: [1] 12.4 µM | [16] 10.8 µM | [2] 14.9 µM | [17] 17.2 µM | [4] 12.1 µM | [5] 5.28 µM | [18] 14.5 µM | [6] 15.6 µM | [19] 6.64 µM | [7] 6.64 µM | [8] 16 µM | [9] 15.3 µM | [20] 13.7 µM | [10] 13.3 µM | [11] 14.6 µM | [15] 14.3 µM | [12] 15.6 µM | [13] 9.42 µM | [14] 1.82 µM

CCC(C(=O)C(=O)C(CC)P1(=O)OC(C)(C)CN1C(C)(C)C)P1(=O)OC(C)(C)CN1C(C)(C)C (centres undefined)
inactive: [1] > 100 µM | [16] > 100 µM | [2] > 100 µM | [17] > 100 µM | [4] > 100 µM | [5] > 100 µM | [18] > 100 µM | [6] > 100 µM | [19] > 100 µM | [7] 22.2 µM | [8] > 100 µM | [9] > 100 µM | [20] > 100 µM | [10] > 100 µM | [11] > 100 µM | [15] 49.7 µM | [12] > 100 µM | [13] > 100 µM | [14] > 100 µM
